# Entries after “also recorded” stand apart in the source; their conditions may differ.
# How the values were obtained:
# heart [1] = experiment: heterotopic rat heart transplant model, First Series Experiment One (heart survival rate, heart transplant index); assay type: in vivo, rat (male Sprague-Dawley); conditions: in place of db cAMP, 24 hr
# heart [2] = experiment: heterotopic rat cardiac transplant, cAMP series, graft survival/score; assay type: in vivo, rat (male Sprague-Dawley); conditions: 12 h in LR
# Excerpt: Preservation solutions included lactated Ringer's (LR) solution Baxter, Edison, N.J.), or LR supplemented with rolipram ZK 62 711, Schering AG, Berlin, Germany), indolidan LY195115, Lilly Research Laboratories, Indianapolis, Ind.), sodium butyrate, 8-bromoadenosine, 8-bromoadenosine 3',5'monophosphate (8-Br-cAMP; Sigma Chemical Co., St. Louis, Mo.), the Rp -isomer of adenosine 3',5'monophosphorothioate (Rp -cAMPS; Biolog, La Jolla, Calif.), the Sp isomer of adenosine 3',5'monophosphorothioate (Sp -cAMPS; Biolog), and N^6,O^2' -dibutyryl adenosine 3',5'monophosphate sodium (db-cAMP; Aldrich, Milwaukee, Wis.). Components were combined within 4 hrs of donor cardiectomy, and preservation solutions were kept at 4° C. University of Wisconsin solution (UW)(2-4 was purchased from Dupont (Wilmington, Del.).
# Donor Cardiectomy. Male Sprague-Dawley rats (350-450 grams, Camm Research, Wayne, N.J.) were anesthetized, heparinized (1000 units of heparin given intravenously), and the donor heart removed in the following manner; a midline incision was performed, followed by rapid cardioplegic arrest with 5 ml of cold (4° C.), high potassium solution (NACl, 0.9%, and KCl, 40 mEq/L). The heart was maintained at 4° C. throughout the harvest procedure by the application of a cold saline soaked gauze over its surface. […] The aortic root was flushed with ≈15 ml of the cold preservation solution until the coronary arteries became visibly clear, and the heart remained in the cold storage solution for the indicated duration until the time of transplantation.
# Heterotopic Transplant. The same breed/size of rat was used, and similarly anesthetized, but not given heparin. A midline abdominal incision was made, and the infrarenal aorta and vena cava were occluded with a side-biting vascular clamp and longitudinal incisions were made in each vessel. The donor heart was removed from the preservation solution and kept moist with saline-soaked gauze. […] Blood flow was restored to the graft (by removal of the clamp) exactly one hour after removal from the cold preservation solution. […] Ten minutes after removal of the cross-clamp, an electrocardiogram was taken (Grass Polygraph, Quincy, Mass.) and the heart was judged by the same blinded investigators throughout based on the presence/absence of regular contractions and a transplant score (0-5, worst-best, respectively) employing the following criteria: contraction (poor=0, average=1, vigorous=2), tissue turgor (hard=0, average=1, soft=2), and color (dusky=0, pink=1). […] The heterotopic cardiac transplant experiments performed in these studies were done by a single surgeon after establishment of this model and acquisition of surgical expertise, with control and experimental groups interspersed throughout the study period to prevent a time-dependent bias pertaining to surgical skills.
# Statistics. Graft survival data and transplant scores were analyzed using the Kruskal-Wallis non-parametric analysis of variance (38). Comparisons of individual treatments were performed using the procedure described by Dunn (39). In addition, the effect of db-cAMP on the time-course of graft failure was quantified by multivariate logistic regression. Graft myeloperoxidase data, microsphere data, and cAMP/adenylate cyclase/phosphodiesterase data from experiments with cultured vascular smooth muscle cells were analyzed by t-tests when 2 treatments were performed or by analysis of variance when 3 or more treatments were performed. In the latter case, post-hoc comparison of treatment groups were tested using Tukey's procedure. Values are expressed as means ±SEM, with a p <0.05 considered statistically significant.
# HUVECs / platelets = experiment: NO by inhibition of thrombin-induced platelet aggregation and serotonin release by ECs; assay type: cell-based, human; conditions: normoxic ECs (hemoglobin); hypoxia 16 h + reoxygenated ECs (SOD, BHT)
# Description: Radiolabelled serotonin (^14 C-5-hydroxytryptamine, Amersham, Arlington Heights, Ill.) was incorporated into the platelets by adding 0.5 μCi during the blood collection process. Inhibition of cyclooxygenase was confirmed by the absence of aggregation to 1 mM sodium arachidonate.
# HUVECs from fresh human umbilical veins were isolated and grown according to previously published methods^12, and used between the 3rd and 4th passages. HUVEC cyclooxygenase was inhibited with acetylsalicylic acid (1 mmol/L in M199 medium, incubated for 30 minutes at 37° C., and then washed twice with M199 to remove residual acetylsalicylic acid) immediately prior to collagenase digestion. […] An hypoxic environment was administered by placing cells in a specially designed airtight chamber (Coy Laboratory Products, Ann Arbor, Mich.) with a normobaric environment comprised of 90% N2, 5% H2, 5% CO2, and 0% O2. pO2 s of 15 Torr in the culture medium were achieved by the use of a palladium catalyst in the chamber to reduce any residual O2. All manipulations, including centrifugation and washing of cells (up to the final aggregometry, or reoxygenation phases as described), were performed within the hypoxia chamber. Reoxygenation was accomplished by removing an aliquot of washed and counted HUVECs in suspension to room air for the indicated duration.
# Platelets were challenged with graded doses of α-thrombin (Sigma) to determine the concentration that caused maximal platelet aggregation (0.3 u/mL in all cases), and this dose was used for all further studies. […] Interference with light absorption was measured for 3 minutes to obtain platelet aggregation curves, after which the cuvette contents were placed on ice, centrifuged at 5,000 rpm for 5 minutes at 4° C., and 200 μL of supernatant was recovered and counted in a liquid scintillation counter to quantify ^14 C-serotonin release. […] Results are expressed as both aggregometry curves and as % maximal serotonin release as defined by thrombin challenge in the absence of ECs.
# [3] = tested on: cAMP-dependent protein kinase; conditions: cited from earlier work
# lung = experiment: orthotopic rat left lung transplantation, cGMP series (hemodynamics, oxygenation, recipient survival); assay type: in vivo, rat (male Lewis); conditions: 6 h in EC
# Description: Orthotopic rat left lung transplantation was accomplished using inbred male Lewis rats (250-300 gms), using a modification of a previously described technique^29. The donor rat was anesthetized and heparinized (500 U intravenously), and endotracheal intubation was performed by inserting a 16 gauge angiocatheter into the trachea using blunt cervical dissection, after which the rat was ventilated with room air at a constant rate (100 breaths/minute) and tidal volume (2.5 ml), using a Harvard rodent ventilator. […] The pulmonary artery (PA) and pulmonary vein (PV) were divided, the bronchus ligated with the lung partially inflated and then divided, and the lung removed. The vascular stumps were each pulled through a small plastic cylinder, and a lip of vessel was turned back around the edge and secured in place with a suture to form a "cuff." A small plastic cylinder was inserted into the bronchial stump and secured, and the lung was then wrapped in gauze and submerged in cold preservation solution for the desired interval.
# The recipient rat (gender/size/strain-matched) was similarly anesthetized and intubated (ventilated with 100% oxygen), but not heparinized. A left thoracotomy was performed, the hilum was dissected, and the left bronchus, PA, and PV were isolated, cross-clamped, divided and the native lung was removed from the field. The PA and PV stumps were rinsed with heparinized saline to remove any clot. The donor lung was brought onto the surgical field, and the cylinder (bronchus) and cuffs (PA and PV) were connected rapidly to their respective structures with a simple staying suture. This cuff technique permitted rapid approximation of donor and recipient tissues with no contact of a foreign substance with the luminal vascular surface. The hilar cross-clamp was released, re-establishing blood flow, and the bronchus tie was removed, enabling gas exchange. A snare was then passed around the right PA, and a Millar catheter (2F; Millar Instruments,Houston, Tex.) was introduced through a small hole (surrounded by a pursestring) into the main PA; similarly, a Millar catheter was introduced into the left atrium (LA). A flow probe (Transonics, Ithaca, N.Y.) was then placed around the main PA. Arterial blood gas sampling performed via the left femoral artery.
# Online hemodynamic monitoring was accomplished using MacLab and a Macintosh IIci computer. The hemodynamic parameters that were measured included PA pressure (mm Hg), blood flow (ml/min), LA pressure (mm Hg), as well as arterial oxygen tension (mm Hg) during inspiration of 100% oxygen; pO2 was analyzed with a model ABL-2 dissolved gas analyzer (Radiometer, Copenhagen, Denmark). Pulmonary vascular resistances (PVRs) were calculated as [mean PA pressure-LA pressure]/PA flow. The native lung supported the recipient during the period of warm ischemia (the period during which the donor lung was removed from cold preservation until the time of reperfusion, <10 min. in all instances), but immediately following rapid hemodynamic instrumentation and acquisition of baseline measurements, the native (right) PA was then ligated, and serial measurements (representative solely of the transplanted lung) were taken every five minutes for 30 minutes. Because the native lung was effectively removed from the circulation by ligation of the right PA, these measurements represent function of the transplanted lung. Recipient death was identified by the cessation of cardiac mechanical activity observed through the thoracotomy.
# Preservation solutions were freshly made and coded by a technician not otherwise involved in the experiments, according to a general plan which included both control and experimental groups. […]
# [4] = molecular target: cGMP-dependent protein kinase; conditions: cited from earlier work
# [5] = tested on: myocardial infarct / neutrophils; conditions: canine ischemia/reperfusion; cited from earlier work
# [6] = tested on: nitric oxide production in heart; experiment: direct measurement of coronary vascular and endocardial NO with porphyrinic microsensor; parameters: species or system rat; conditions: transplanted hearts
# Description: Direct measurement of coronary vascular and endocardial nitric oxide synthesis were made with a porphyrinic microsensor^13 using differential pulse voltammetry or amperometry. Rat hearts were explanted and preserved as described above, and studied fresh (no preservation/transplantation) or after hypothermic preservation in lactated Ringer's (LR) solution, heterotopic transplantation, and 10 minutes of reperfusion. The coronary vasculature was flushed free of blood with LR followed by 4 ml of LR supplemented with L-Arg (2 mM) and bradykinin ([…], Sigma), which was recycled (1 ml/min) through the coronary vasculature by flushing down the cross-clamped aortic root. Aliquots of perfusate were immediately transferred to an anaerobic environment for measurements and compared to an aqueous nitric oxide reference. Differential pulse voltammograms were obtained using a sensor (working electrode), saturated calomel electrode reference, and platinum wire-auxiliary electrode, with a pulse amplitude of 40 mV. Endocardial NO was measured by implanting the sensor in the septal endocardium of a freshly explanted or preserved/transplanted heart, and after the baseline stabilization, […] bradykinin was applied and NO release continuously monitored by amperometry at constant potential of 0.63 V.
# [7] = tested on: nitric oxide in lung tissue; experiment: ex vivo pulmonary NO with porphyrinic microsensor; parameters: species or system rat
# Description: Direct measurement of pulmonary NO production was made using a porphyrinic microsensor^30 and differential pulse voltammetry. Pieces of rat lung of equal weight (40±4 mg) were harvested following 6 hrs of hypothermic preservation in LR alone, or 6 hrs of preservation followed by orthotopic transplantation and 30 minutes of reperfusion as described above. These pieces were placed in a vial containing 2 mL of LR and equilibrated to 37° C. under ambient conditions. Differential pulse voltammograms (current [proportional to NO concentration] versus potential) with pulse amplitude of 40 mV were obtained with a sensor placed on the tissue surface. A saturated calomel reference electrode (SCE) and platinum wire (auxiliary electrode) were immersed in the LR solution. The sensor is a working electrode at which oxidation of NO occurs, resulting in an electric current (which flows between working and auxiliary electrodes). The reference electrode is used to monitor the potential of the working electrode. NO concentrations measured ex vivo have been normalized, and are reported as per 40 mg of tissue. An aqueous NO solution prepared as previously described^31 was used to calibrate the sensor.
# [8] = tested on: nitric oxide at lung surface; experiment: in vivo pulmonary NO with porphyrinic microsensor; parameters: species or system rat
# Description: Measurements of nitric oxide concentrations in vivo were performed with a two electrode system using a porphyrinic sensor as a working electrode and a platinum wire as an auxiliary/reference electrode. The porphyrinic sensor with a flexible base was lowered onto the exposed surface of the lung using a micromanipulator. A small piezoelectric signal (mechanically generated current) was used to indicate that the sensor had made contact with the tissue surface. NO measurements were begun once the flexible sensor assumed an L-shaped configuration on the tissue surface and the platinum wire was connected to adjacent tissue. Continous amperometric (current-time) measurements were obtained at a constant potential of 0.68 V, during the period of warm ischemia (after the lung was sewn in place but not yet reperfused) and continously as the vascular cross-clamp was released and reperfusion initiated. Topical application of the calcium ionophore (A23187, 9.5 μM; Sigma) and superoxide dismutase (100 U/ml; Sigma) was applied as monitoring was continued.
# [9] = lung preserved 6 h in LR, no reimplantation
compound,measurement,setting,value
Nc1ncnc2c1nc(Br)n2[C@@H]1O[C@H](CO)[C@@H](O)[C@H]1O [8-bromoadenosine],beneficial effect on cardiac preservation,heart [1],no such beneficial effect
same,effect on cardiac preservation,heart [2],ineffective
"Cc1cc(C(C)(C)C)c(O)c(C(C)(C)C)c1 [BHT, butylated hydroxytoluene]",effect on NO / platelet inhibition by ECs,HUVECs / platelets,restore NO levels
"Nc1ncnc2c1ncn2[C@@H]1O[C@@H]2CO[P@@](O)(=S)O[C@H]2[C@H]1O [Rp -cAMPS, Rp isomer of adenosine 3'5'monophosphorothioate]",effect on cardiac preservation,heart [2],prevented preservation enhancement induced by 8-bromo-cAMP; also recorded: abolished the salutory effect of 8-Br-cAMP on preservation
same,effect on cAMP-dependent protein kinase,[3],nonhydrolyzable competitive PKA antagonist
"Nc1nc2c(nc(Sc3ccc(Cl)cc3)n2[C@@H]2O[C@@H]3CO[P@@](O)(=S)O[C@H]3[C@H]2O)c(=O)[nH]1 [Rp-8-pCPT-cGMPS, R isomer of 8-(4-chlorophenylthio)guanosine-3'5'-cyclic monophosphorothioate]",effect on lung preservation,lung,block the beneficial effects of 8-Br-cGMP
same,Ki,"[4]; cGMP-dependent protein kinase, personal communication",0.5 µM
same,Ki,"[3]; cAMP-dependent protein kinase, personal communication",8.3 µM
"Nc1ncnc2c1ncn2[C@@H]1O[C@@H]2CO[P@](O)(=S)O[C@H]2[C@H]1O [Sp -cAMPS, Sp isomer of adenosine 3'5'monophosphorothioate]",effect on cardiac preservation,heart [2],enhanced preservation
same,effect on cGMP-dependent protein kinase,[4],antagonist of the cGMP-dependent protein kinase
same,effect on cAMP-dependent protein kinase,[3],PKA agonist
"CCCC(=O)[O-].[Na+] [butyrate, sodium butyrate]",beneficial effect on cardiac preservation,heart [1],no such beneficial effect
same,effect on cardiac preservation,heart [2],consistently failed
COc1ccc(C2CNC(=O)C2)cc1OC1CCCC1 (stereo not shown) [rolipram],effect on cardiac preservation,heart [2],uniformly enhanced preservation
same,myocardial infarct size,[5],does not limit myocardial infarct size
same,neutrophil superoxide production in vitro / no-reflow,[5],significantly reduces neutrophil production of superoxide in vitro
SOD: bovine erythrocyte superoxide dismutase,effect on NO / platelet inhibition by ECs,HUVECs / platelets,restore NO levels
same,effect on NO levels,[6],levels augmented
same,fold increase in detectable NO with SOD,[7]; lung preserved 6 h in LR and reimplanted,~ 25 fold
same,NO concentration with SOD,[7]; [9],300 nM
same,increase in NO with SOD,[7]; [9],50%
same,increase in NO with SOD,[8]; normal lung,10%
same,local NO concentration with SOD,[8]; normal lung,720 ± 110 nM
same,NO level with SOD during reperfusion,"[8]; preserved 6 h in LR, transplanted, from ~25 nM",~ 40 nM
hemoglobin,effect on NO / platelet inhibition by ECs,HUVECs / platelets,blocked

# Source: patent US5552267A, “Solution for prolonged organ preservation” (priority 1994, dated 1996)
